Reference: US7713994B2 (Wyeth LLC, priority 2005, dated 2010)
Like-named read-outs stand apart in the source and are kept apart here.

Tests used:
BT474 = assay: Cytotoxicity assay (SRB), BT474; assay type: cell-based
Protocol: (§1) BT474, HCT-116, LoVo and MCF-7 were maintained under 7% CO2 in RPMI 1640 medium supplemented with 10% fetal bovine serum and 50 µg/ml gentamicin.
(§2) Cells were plated in 96-well microtiter dishes (12000 cells/well for BT474, 4000 cells/well for HCT-116, 6000 cells/well for LoVo and 6000 cells/well for MCF-7) in RPMI 1640 medium containing 5% fetal bovine serum and 50 µg/ml gentamicin. The cells were allowed to incubate overnight at 37° C., 7% CO2. Compound dilutions were prepared using the same medium. HCT-116, LoVo and MCF-7 cells were cultured for three days and BT474 cells were cultured for 6 days, in the presence of each compound dilution. Untreated cells were included as controls. The percentage of surviving cells was determined using a protein binding dye (sulforhodamineB, SRB) assay. Cellular protein was precipitated in each well by the addition of 0.05 ml of 50% cold trichloroacetic acid (TCA). After 1 hour, the plates were washed extensively in dH2O and dried. The sulforhodamineB dye solution (0.08 mL of 0.4% SRB in 1% acetic acid) was added to each well, kept at room temperature for ten minutes, then washed in 1% acetic acid and dried. The dye was dissolved in 10 mM Tris-HCl (150 uL) and the absorbency read at 540 nm.

HCT-116 = assay: Cytotoxicity assay (SRB), HCT-116; assay type: cell-based; details: Homo sapiens, HCT-116, 72 h, HCT116 cells, SRB, read-out: In Vitro Cellular Activity IC50 HCT116
Protocol: as §1, §2

LoVo = assay: Cytotoxicity assay (SRB), LoVo; assay type: cell-based; details: Homo sapiens, LoVo, 72 h, LoVo cells, SRB, read-out: In Vitro Cellular Activity IC50 LOVO
Protocol: as §1, §2

MCF-7 = assay: Cytotoxicity assay (SRB), MCF-7; assay type: cell-based; details: Homo sapiens, MCF7, 72 h, MCF-7 cells, SRB, read-out: In Vitro Cellular Activity IC50 MCF-7
Protocol: as §1, §2

cyclin D1/cdk 4 enzyme = target: T1, cyclin D1/cdk 4 enzyme (Homo sapiens, UniProt P11802); assay: CDK4 ELISA kinase assay (phospho-Rb ser 795 detection); assay type: biochemical; details: In Vitro Enzyme Assay, cyclin D1/cdk 4, read-out: CDK4 IC50
T1 construct: made in house; host or cells: Sf9 insect cells, recombinant baculovirus
Summary of the method: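 GST-Rb C-terminal fragment coated on plates; partially purified Sf9-expressed cyclin D1/CDK4, cyclin E/CDK2 or cyclin B/CDK1 with 200 μM ATP, pH 7.5 HEPES/MgCl2 buffer, 1 h at 30 °C; screen compound final 10 μg/ml. Phospho-Rb Ser795 detected by antibody ELISA (TMB, A450); % of control, IC50 from background-subtracted inhibition curves.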

[1] = Homo sapiens, BT-474, 144 h, BT474 cells, SRB, 6 days; read-out: In Vitro Cellular Activity IC50 BT474
[2] = Homo sapiens, BT-474, 144 h, BT474 cells, 6 days, SRB; read-out: In Vitro Cellular Activity IC50 BT474

T1 sequence (P11802 whole entry, species assumed): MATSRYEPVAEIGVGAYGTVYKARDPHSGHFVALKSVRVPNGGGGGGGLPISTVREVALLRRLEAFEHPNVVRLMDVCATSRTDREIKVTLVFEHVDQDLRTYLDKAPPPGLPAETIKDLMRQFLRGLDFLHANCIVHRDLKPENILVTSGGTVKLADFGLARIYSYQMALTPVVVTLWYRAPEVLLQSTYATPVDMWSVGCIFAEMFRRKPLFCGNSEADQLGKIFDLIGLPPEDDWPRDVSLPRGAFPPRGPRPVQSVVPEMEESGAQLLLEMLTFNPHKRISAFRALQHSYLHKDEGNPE
T1 sequence (P24385 whole entry partner, species assumed): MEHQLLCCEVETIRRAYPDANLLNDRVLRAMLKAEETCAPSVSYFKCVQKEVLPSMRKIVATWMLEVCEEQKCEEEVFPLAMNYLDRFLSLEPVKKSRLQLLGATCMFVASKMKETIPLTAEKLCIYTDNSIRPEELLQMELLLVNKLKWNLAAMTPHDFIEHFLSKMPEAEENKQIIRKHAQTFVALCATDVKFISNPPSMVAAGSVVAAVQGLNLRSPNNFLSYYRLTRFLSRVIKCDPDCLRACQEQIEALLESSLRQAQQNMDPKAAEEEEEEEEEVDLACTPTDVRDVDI

O=C1NC(=O)c2ccc(Br)cc2/C1=C/Nc1ccc2ncccc2c1 [Example 271, (4Z)-6-Bromo-4-[(quinolin-6-ylamino)methylene]isoquinoline-1,3(2H,4H)-dione]
IC50 (BT474; [1]): 32 µM | IC50 (HCT-116; three days): 46 µM | IC50 (LoVo; three days): > 50 µM | IC50 (MCF-7; three days): 39 µM

CN(CCN1CCOCC1)c1ccc(NC=C2C(=O)NC(=O)c3ccc(Br)cc32)cc1 (stereo in doubt) [Example 871, (4Z)-6-Bromo-4-[({4-[methyl(2-morpholin-4-ylethyl)amino]phenyl}amino)methylene]isoquinoline-1,3(2H,4H)-dione]
IC50 (BT474; [2]): > 50 µM | IC50 (HCT-116; 3 days): 13.9 µM | IC50 (LoVo; 3 days): 46.6 µM | IC50 (MCF-7; 3 days): 29.1 µM

CCCCN(C)CCN(C)c1ccc(NC=C2C(=O)NC(=O)c3ccc(Br)cc32)cc1 (stereo in doubt) [Example 257, (4Z)-6-Bromo-4-[({4-[{2-[butyl(methyl)amino]ethyl}(methyl)amino]phenyl}amino)methylene]isoquinoline-1,3(2H,4H)-dione]
IC50 (BT474; [1]): 6.5 µM | IC50 (HCT-116; three days): 2.5 µM | IC50 (LoVo; three days): 4.7 µM | IC50 (MCF-7; three days): 3.6 µM

COc1ccc(CN/C=C2\C(=O)N(C(C)=O)N(C(C)=O)c3ccccc32)cc1O [Example 167, (4Z)-1,2-Diacetyl-4-{[(3-hydroxy-4-methoxybenzyl)amino]methylene}-1,4-dihydrocinnolin-3(2H)-one]
IC50 (BT474; [1]): 9.6 µM | IC50 (HCT-116; three days): 11 µM | IC50 (LoVo; three days): 12 µM | IC50 (MCF-7; three days): 13 µM

CC(C)(C)OC(=O)N1CCN(c2ccc(N/C=C3\C(=O)NC(=O)c4ccc(I)cc43)cn2)CC1 [Example 409, tert-Butyl 4-(5-{[(Z)-(6-iodo-1,3-dioxo-2,3-dihydroisoquinolin-4(1H)-ylidene)methyl]amino}pyridin-2-yl)piperazine-1-carboxylate]
IC50 (BT474; [2]): 41.6 µM | IC50 (HCT-116; 3 days): 25.6 µM | IC50 (LoVo; 3 days): 6.4 µM | IC50 (MCF-7; 3 days): 36.6 µM

O=C1NC(=O)c2ccc(I)cc2/C1=C/Nc1ccc(C2=NCCC2)cc1 [Example 403, 4-{[4-(4,5-Dihydro-3H-pyrrol-2-yl)-phenylamino]-methylene}-6-iodo-4H-isoquinoline-1,3-dione]
IC50 (BT474; [2]): 40 µM | IC50 (HCT-116; 3 days): 41.5 µM | IC50 (LoVo; 3 days): > 50 µM | IC50 (MCF-7; 3 days): > 50 µM

COc1cnc(CN/C=C2\C(=O)NC(=O)c3ccc(I)cc32)nc1O [Example 479, 4-{[(4-Hydroxy-5-methoxy-pyrimidin-2-ylmethyl)-amino]-methylene}-6-iodo-4H-isoquinoline-1,3-dione]
IC50 (BT474; [2]): 43 µM | IC50 (HCT-116; 3 days): > 50 µM | IC50 (LoVo; 3 days): > 50 µM | IC50 (MCF-7; 3 days): > 50 µM

CCCCN(C)CCN(C)c1ccc(NC=C2C(=O)NC(=O)c3ccc(Br)cc32)cc1 (stereo in doubt) [Example 866, (4Z)-6-Bromo-4-[({4-[{2-[butyl(methyl)amino]ethyl}(methyl)amino]phenyl}amino)methylene]isoquinoline-1,3(2H,4H)-dione]
IC50 (BT474; [2]): 6.5 µM | IC50 (HCT-116; 3 days): 2.5 µM | IC50 (LoVo; 3 days): 4.7 µM | IC50 (MCF-7; 3 days): 3.6 µM

COc1ccc(CN/C=C2\C(=O)NC(=O)c3ccc(Br)cc32)cc1F [Example 181, (4Z)-6-Bromo-4-{[(3-fluoro-4-methoxybenzyl)amino]methylene}isoquinoline-1,3(2H,4H)-dione]
IC50 (BT474; [1]): > 50 µM | IC50 (HCT-116; three days): 16 µM | IC50 (LoVo; three days): > 50 µM | IC50 (MCF-7; three days): > 50 µM

O=C1NC(=O)c2ccc(Br)cc2/C1=C/NCc1ccc(OCCOCc2ccccc2)c(O)c1 [Example 159]
IC50 (BT474; [1]): 25 µM | IC50 (HCT-116; three days): 16 µM | IC50 (LoVo; three days): 18 µM | IC50 (MCF-7; three days): > 50 µM

O=C1NCc2cc(Cl)ccc2C1=CNc1cccc(O)c1 [Example 856, 7-Chloro-4-[(3-hydroxy-phenylamino)-methylene]-1,4-dihydro-2H-isoquinolin-3-one]
IC50 (BT474; [2]): 5.6 µM | IC50 (HCT-116; 3 days): 12.2 µM | IC50 (LoVo; 3 days): 13.5 µM | IC50 (MCF-7; 3 days): 3.8 µM

O=C1NC(=O)c2ccc(I)cc2/C1=C/NCc1ccc(-c2ccncc2)c(O)c1 [Example 511, 4-[(3-Hydroxy-4-pyridin-4-yl-benzylamino)-methylene]-6-iodo-4H-isoquinoline-1,3-dione]
IC50 (BT474; [2]): 2.5 µM | IC50 (HCT-116; 3 days): 2.3 µM | IC50 (LoVo; 3 days): 2.5 µM | IC50 (MCF-7; 3 days): 1.5 µM

CN1CCN(c2ccc(NC=C3C(=O)NC(=O)c4ccc(C=Cc5ccc([N+](=O)[O-])cc5)cc43)cc2)CC1 [Example 829, 4-{[4-(4-Methyl-piperazin-1-yl)-phenylamino]-methylene}-6-[2-(4-nitro-phenyl)-vinyl]-4H-isoquinoline-1,3-dione]
IC50 (cyclin D1/cdk 4 enzyme): 26.5 µM

NS(=O)(=O)c1ccc(CNC=C2C(=O)NC(=O)c3ccc(-c4cccc(-c5ccccc5)c4)cc32)cc1 [Example 758, 4-{[(6-Biphenyl-3-yl-1,3-dioxo-2,3-dihydro-1H-isoquinolin-4-ylidenemethyl)-amino]-methyl}-benzenesulfonamide]
IC50 (cyclin D1/cdk 4 enzyme): 25.7 µM

N#CCc1ccc(NC=C2C(=O)NC(=O)c3ccc(-c4csc5ccccc45)cc32)cc1 [Example 628, {4-[(6-Benzo[b]thiophen-3-yl-1,3-dioxo-2,3-dihydro-1H-isoquinolin-4-ylidenemethyl)-amino]-phenyl}-acetonitrile]
IC50 (cyclin D1/cdk 4 enzyme): 33.6 µM

O=C1NC(=O)c2ccc(C=CCN3CCNCC3)cc2C1=CNCc1ccc(O)c(O)c1 [Example 666, 4-[(3,4-Dihydroxy-benzylamino)-methylene]-6-(3-piperazin-1-yl-propenyl)-4H-isoquinoline-1,3-dione]
IC50 (cyclin D1/cdk 4 enzyme): 2.5 µM

N#CCc1ccc(NC=C2C(=O)NC(=O)c3ccc(-c4cccc5cccnc45)cc32)cc1 [Example 625, {4-[(1,3-Dioxo-6-quinolin-8-yl-2,3-dihydro-1H-isoquinolin-4-ylidenemethyl)-amino]-phenyl}-acetonitrile]
IC50 (cyclin D1/cdk 4 enzyme): 14.8 µM

N#CCc1ccc(NC=C2C(=O)NC(=O)c3ccc(-c4ccc(C#N)cc4)cc32)cc1 [Example 718, 4-{4-[(4-Cyanomethyl-phenylamino)-methylene]-1,3-dioxo-1,2,3,4-tetrahydro-isoquinolin-6-yl}-benzonitrile]
IC50 (cyclin D1/cdk 4 enzyme): 8.2 µM

Cc1cc(NS(=O)(=O)c2ccc(NC=C3C(=O)NC(=O)c4ccccc43)cc2)no1 [Example 556, 4-[(1,3-Dioxo-2,3-dihydro-1H-isoquinolin-4-ylidenemethyl)-amino]-N-(5-methyl-isoxazol-3-yl)-benzenesulfonamide]
IC50 (cyclin D1/cdk 4 enzyme): 48.4 µM

CCCS(=O)(=O)Nc1ccc(CNC=C2C(=O)NC(=O)c3ccccc32)cc1 [Example 592, Propane-1-sulfonic acid (4{[(1,3-dioxo-2,3-dihydro-1H-isoquinolin-4-ylidenemethyl)-amino]-methyl}-phenyl)-amide]
IC50 (cyclin D1/cdk 4 enzyme): 29.9 µM

Cc1ccc(-c2ccc3c(c2)C(=CNc2ccc(N4CCN(C)CC4)cc2)C(=O)NC3=O)cc1 [Example 692, 4-{[4-(4-Methyl-piperazin-1-yl)-phenylamino]-methylene}-6-p-tolyl-4H-isoquinoline-1,3-dione]
IC50 (cyclin D1/cdk 4 enzyme): 30.7 µM

CC(C#N)=C(C)c1ccc2c(c1)C(=CNc1ccc(N3CCN(C)CC3)cc1)C(=O)NC2=O [Example 802, 2-Methyl-3-(4-{[4-(4-methyl-piperazin-1-yl)-phenylamino]-methylene}-1,3-dioxo-1,2,3,4-tetrahydro-isoquinolin-6-yl)-but-2-enenitrile]
IC50 (cyclin D1/cdk 4 enzyme): 15 µM

O=C1NC(=O)c2ccccc2C1=CNc1ccc(C(=O)O)c(O)c1 [Example 560, 4-[(1,3-Dioxo-2,3-dihydro-1H-isoquinolin-4-ylidenemethyl)-amino]-2-hydroxy-benzoic acid]
IC50 (cyclin D1/cdk 4 enzyme): 17.3 µM

CS(=O)(=O)Nc1ccc(CNC=C2C(=O)NC(=O)c3ccccc32)cc1 [Example 589]
IC50 (cyclin D1/cdk 4 enzyme): 36.4 µM

O=C1NC(=O)c2ccccc2C1=CNc1cccc(C(=O)O)c1 [Example 542, 3-[(1,3-Dioxo-2,3-dihydro-1H-isoquinolin-4-ylidenemethyl)-amino]-benzoic acid]
IC50 (cyclin D1/cdk 4 enzyme): 34.8 µM

N#CCc1ccc(NC=C2C(=O)NC(=O)c3ccc(C=Cc4ccccn4)cc32)cc1 [Example 648, (4-{[1,3-Dioxo-6-(2-pyridin-2-yl-vinyl)-2,3-dihydro-1H-isoquinolin-4-ylidenemethyl]-amino}-phenyl)-acetonitrile]
IC50 (cyclin D1/cdk 4 enzyme): 18.6 µM
